Target: Escherichia coli ParC/ParE tetramer protein (Escherichia coli, UniProt P0AFI2+P20083)
Assay: E. coli ParC/ParE ATPase inhibition assay (malachite green phosphate detection)
Format: biochemical
Conditions: ATPase activity of ParE subunit of reconstituted ParC/ParE tetramer; 0.16 mM ATP; 24 hours at room temperature
Source text: The compounds of Formula (I) are of interest due to their antibacterial effects. The ability of the invention compounds disclosed herein to achieve an antibacterial effect may be evaluated with regard to their ability to inhibit the ParC enzyme of Escherichia coli using an assay based on the following protocol.
The assay utilizes the ATPase activity of the ParE subunit of reconstituted Escherichia coli ParC/ParE tetramer protein. Inhibition of ATPase activity may be monitored by reduced production of inorganic phosphate, a product of the ATPase reaction. Inorganic phosphate may be quantified using the ammonium molybdate/malachite green-based detection system. For determination of IC50 values, assays may be performed 384-well microtiter plates. Each well preferably contains a dilution range of the compound dissolved in DMSO. In addition, each well preferably contains: 20 mM Tris pH 8.0, 50 mM ammonium acetate, 0.16 mM ATP, 0.005% Brij-35, 8.0 mM magnesium chloride, 0.5 mM EDTA, 2.5% v/v glycerol, 5 mM dithiothreitol, 0.005 mg/mL sheared salmon sperm DNA, 0.5 nM E. coli ParC protein, 0.5 nM E. coli ParE protein. Final volume of assays is preferably 30 μL. Reactions may be incubated 24 hours at room temperature and then quenched with the addition of 45 μL malachite green reagent (Lanzetta, P. A., L. J. Alvarez, P. S. Reinach, and O. A. Candia (1979) Anal. Biochem. 100: 95-97) via a bulk reagent dispenser. Plates may be incubated 3-5 minutes at room temperature, and then absorbance at 650 nm may be measured using a Spectramax 384 plate reader.
When tested in an assay based on the one described above, the inhibitory activity of the following Examples was measured at the indicated IC50.

Sequence of Escherichia coli ParC/ParE tetramer protein (P20083 whole entry): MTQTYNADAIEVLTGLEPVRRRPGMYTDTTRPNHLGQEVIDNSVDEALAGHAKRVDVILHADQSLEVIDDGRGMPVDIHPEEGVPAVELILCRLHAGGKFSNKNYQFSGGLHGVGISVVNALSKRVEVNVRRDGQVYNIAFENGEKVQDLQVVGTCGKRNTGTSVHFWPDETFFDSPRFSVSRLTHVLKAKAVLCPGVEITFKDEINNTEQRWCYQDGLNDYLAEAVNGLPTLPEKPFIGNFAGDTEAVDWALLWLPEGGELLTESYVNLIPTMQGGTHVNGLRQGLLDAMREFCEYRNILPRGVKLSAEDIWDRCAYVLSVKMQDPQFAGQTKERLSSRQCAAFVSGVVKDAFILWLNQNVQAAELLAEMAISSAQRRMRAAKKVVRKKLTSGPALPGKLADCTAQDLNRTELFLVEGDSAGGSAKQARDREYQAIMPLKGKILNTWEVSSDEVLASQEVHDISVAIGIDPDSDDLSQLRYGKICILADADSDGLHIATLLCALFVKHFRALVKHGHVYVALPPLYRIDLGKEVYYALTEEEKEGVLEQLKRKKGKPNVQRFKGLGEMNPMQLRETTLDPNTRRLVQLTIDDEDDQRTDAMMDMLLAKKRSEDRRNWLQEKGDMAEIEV
Sequence of Escherichia coli ParC/ParE tetramer protein (P0AFI2 whole entry): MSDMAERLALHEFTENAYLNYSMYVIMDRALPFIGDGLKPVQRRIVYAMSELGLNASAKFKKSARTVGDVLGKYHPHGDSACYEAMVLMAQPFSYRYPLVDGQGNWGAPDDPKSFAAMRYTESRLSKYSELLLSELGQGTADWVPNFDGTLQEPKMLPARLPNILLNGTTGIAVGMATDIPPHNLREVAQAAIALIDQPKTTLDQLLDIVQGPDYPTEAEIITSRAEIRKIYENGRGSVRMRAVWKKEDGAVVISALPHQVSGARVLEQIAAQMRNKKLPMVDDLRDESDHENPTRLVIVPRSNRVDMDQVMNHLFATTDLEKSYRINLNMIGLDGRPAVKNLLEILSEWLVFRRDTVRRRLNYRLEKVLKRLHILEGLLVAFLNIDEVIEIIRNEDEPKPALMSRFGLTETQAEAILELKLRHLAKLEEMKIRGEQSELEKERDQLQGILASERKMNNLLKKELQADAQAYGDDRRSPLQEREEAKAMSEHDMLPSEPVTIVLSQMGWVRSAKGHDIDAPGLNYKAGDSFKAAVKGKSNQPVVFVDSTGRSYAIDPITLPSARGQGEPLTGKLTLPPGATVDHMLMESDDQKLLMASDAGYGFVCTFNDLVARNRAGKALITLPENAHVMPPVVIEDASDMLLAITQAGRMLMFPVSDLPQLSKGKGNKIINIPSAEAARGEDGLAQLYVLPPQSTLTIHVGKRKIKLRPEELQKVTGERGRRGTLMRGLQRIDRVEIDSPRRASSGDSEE

Compound: COc1cnc2ccc(=O)n(CC(N)[C@H]3CC[C@H](NCc4ccc5c(n4)NC(=O)CO5)CC3)c2c1 (single isomer, unassigned; enantiomer b) [Example 1(b), Trans-6-((4-(1-amino-2-(7-methoxy-2-oxo-1,5-naphthyridin-1(2H)-yl)ethyl)cyclohexylamino)methyl)-2H-pyrido[3,2-b][1,4]oxazin-3(4H)-one, enantiomer B]
- IC50: 33 nM

Compound: COc1cnc2ccc(=O)n(CC(N)C3CCC(NCc4ccc5c(n4)NC(=O)CO5)CC3)c2c1 (racemic) [Example 1, Trans-6-((4-(1-amino-2-(7-methoxy-2-oxo-1,5-naphthyridin-1(2H)-yl)ethyl)cyclohexylamino)methyl)-2H-pyrido[3,2-b][1,4]oxazin-3(4H)-one]
- IC50: 20 nM

Compound: N#Cc1ccc2ccc(=O)n(CC(N)[C@H]3CC[C@H](NCc4ccc5c(n4)NC(=O)CS5)CC3)c2c1 (single isomer, unassigned; enantiomer b) [Example 7(b), Trans-1-(2-amino-2-(4-((3-oxo-3,4-dihydro-2H-pyrido[3,2-b][1,4]thiazin-6-yl)methylamino)cyclohexyl)ethyl)-2-oxo-1,2-dihydroquinoline-7-carbonitrile, enantiomer B]
- IC50: 2 nM

Compound: NC(Cn1c(=O)cnc2ccc(F)cc21)[C@H]1CC[C@H](NCc2ccc3c(n2)NC(=O)CO3)CC1 (single isomer, unassigned) [Example 5, Trans-6-((4-(1-amino-2-(7-fluoro-2-oxoquinoxalin-1(2H)-yl)ethyl)cyclohexylamino)methyl-2H-pyrido[3,2-b][1,4]oxazin-3(4H)-one, (+) enantiomer]
- IC50: 24 nM

Compound: N#Cc1ccc2ccc(=O)n(CC(N)C3CCC(NCc4ccc5c(n4)NC(=O)CO5)CC3)c2c1 (racemic) [Example 4, Trans-1-(2-amino-2-(4-((3-oxo-3,4-dihydro-2H-pyrido[3,2-b][1,4]oxazin-6-yl)methylamino)cyclohexyl)ethyl)-2-oxo-1,2-dihydroquinoline-7-carbonitrile]
- IC50: 9 nM

Compound: NC(Cn1c(=O)ccc2ncc(Sc3ccccc3)cc21)C1CCC(NCc2ccc3c(n2)NC(=O)CO3)CC1 (single isomer, unassigned; enantiomer a) [Example 9, Trans-6-((4-(1-amino-2-(2-oxo-7-(phenylthio)-1,5-naphthyridin-1(2H)-yl)ethyl)cyclohexylamino)methyl)-2H-pyrido[3,2-b][1,4]oxazin-3(4H)-one, enantiomer A]
- IC50: 6 nM

Compound: NC(Cn1c(=O)cnc2ccc(F)cc21)C1CCC(NCc2ncc3c(n2)NC(=O)CO3)CC1 (single isomer, unassigned) [Example 6, Trans-2-((4-(1-amino-2-(7-fluoro-2-oxoquinoxalin-1(2H)-yl)ethyl)cyclohexylamino)methyl-6H-pyrimido[5,4-b][1,4]oxazin-7(8H)-one, (+) enantiomer]
- IC50: 15 nM

Compound: N#Cc1ccc2ccc(=O)n(CC(N)C3CCC(NCc4ccc5c(n4)NC(=O)CS5)CC3)c2c1 (racemic) [Example 7, Trans-1-(2-amino-2-(4-((3-oxo-3,4-dihydro-2H-pyrido[3,2-b][1,4]thiazin-6-yl)methylamino)cyclohexyl)ethyl)-2-oxo-1,2-dihydroquinoline-7-carbonitrile]
- IC50: 12 nM

Compound: N#Cc1ccc2ccc(=O)n(CC(N)[C@H]3CC[C@H](NCc4ccc5c(n4)NC(=O)CO5)CC3)c2c1 (single isomer, unassigned; enantiomer a) [Example 4(a), Trans-1-(2-amino-2-(4-((3-oxo-3,4-dihydro-2H-pyrido[3,2-b][1,4]oxazin-6-yl)methylamino)cyclohexyl)ethyl)-2-oxo-1,2-dihydroquinoline-7-carbonitrile, enantiomer A]
- IC50: 32 nM

Compound: COc1ccc2ncc(=O)n(CC(N)[C@H]3CC[C@H](NCc4ncc5c(n4)NC(=O)CO5)CC3)c2c1 (single isomer, unassigned; enantiomer a) [Example 3(a), Trans-2-((4-(1-amino-2-(7-methoxy-2-oxoquinoxalin-1(2H)-yl)ethyl)cyclohexylamino)methyl)-6H-pyrimido[5,4-b][1,4]oxazin-7(8H)-one, enantiomer A]
- IC50: 16 nM

Compound: N#Cc1ccc2ccc(=O)n(CC(N)[C@H]3CC[C@H](NCc4ccc5c(n4)NC(=O)CO5)CC3)c2c1 (single isomer, unassigned; enantiomer b) [Example 4(b), Trans-1-(2-amino-2-(4-((3-oxo-3,4-dihydro-2H-pyrido[3,2-b][1,4]oxazin-6-yl)methylamino)cyclohexyl)ethyl)-2-oxo-1,2-dihydroquinoline-7-carbonitrile, enantiomer B]
- IC50: 4 nM

Compound: COc1ccc2ncc(=O)n(CC(N)[C@H]3CC[C@H](NCc4ccc5c(n4)NC(=O)CO5)CC3)c2c1 (single isomer, unassigned; enantiomer a) [Example 2(a), Trans-6-((4-(1-amino-2-(7-methoxy-2-oxoquinoxalin-1(2H)-yl)ethyl)cyclohexylamino)methyl)-2H-pyrido[3,2-b][1,4]oxazin-3(4H)-one, enantiomer A]
- IC50: 16 nM

Compound: Cc1cc(=O)n(CC(N)C2CCC(NCc3ccc4c(n3)NC(=O)CO4)CC2)c2cc(F)ccc12 (single isomer, unassigned; enantiomer a) [Example 10, Trans-6-((4-(1-amino-2-(7-fluoro-4-methyl-2-oxoquinolin-1(2H)-yl)ethyl)cyclohexylamino)methyl)-2H-pyrido[3,2-b][1,4]oxazin-3(4H)-one, enantiomer A]
- IC50: 9 nM

Compound: COc1ccc2ncc(=O)n(CC(N)[C@H]3CC[C@H](NCc4ccc5c(n4)NC(=O)CO5)CC3)c2c1 (single isomer, unassigned; enantiomer b) [Example 2(b), Trans-6-((4-(1-amino-2-(7-methoxy-2-oxoquinoxalin-1(2H)-yl)ethyl)cyclohexylamino)methyl)-2H-pyrido[3,2-b][1,4]oxazin-3(4H)-one, enantiomer B]
- IC50: 4 nM

Compound: COc1cnc2ccc(=O)n(CC(N)[C@H]3CC[C@H](NCc4ccc5c(n4)NC(=O)CO5)CC3)c2c1 (single isomer, unassigned; enantiomer a) [Example 1(a), Trans-6-((4-(1-amino-2-(7-methoxy-2-oxo-1,5-naphthyridin-1(2H)-yl)ethyl)cyclohexylamino)methyl)-2H-pyrido[3,2-b][1,4]oxazin-3(4H)-one, enantiomer A]
- IC50: 2 nM

Compound: COc1ccc2ncc(=O)n(CC(N)[C@H]3CC[C@H](NCc4ncc5c(n4)NC(=O)CO5)CC3)c2c1 (single isomer, unassigned; enantiomer b) [Example 3(b), Trans-2-((4-(1-amino-2-(7-methoxy-2-oxoquinoxalin-1(2H)-yl)ethyl)cyclohexylamino)methyl)-6H-pyrimido[5,4-b][1,4]oxazin-7(8H)-one, enantiomer B]
- IC50: 3 nM

Compound: COc1cnc2ccc(=O)n(CC(N)C3CCC(NCc4ncc5c(n4)NC(=O)CO5)CC3)c2c1 (racemic) [Example 8, Trans-2-((4-(1-amino-2-(7-methoxy-2-oxo-1,5-naphthyridin-1(2H)-yl)ethyl)cyclohexylamino)methyl)-6H-pyrimido[5,4-b][1,4]oxazin-7(8H)-one]
- IC50: 17 nM

— patent publication US20110288084A1, “[4-( 1-AMINO-ETHYL) - CYCLOHEXYL ] - METHYL - AMINES AS ANTIBACTERIALS” (ASTRAZENECA AB, priority 2008, published 2011)
